Source: US20260070945A1, “MACROCYCLIC IMMUNOMODULATORS” (Bristol-Myers Squibb Company, priority 2022, published 2026)
Read-outs that look alike come from different tables or passages of the source. Where a SMILES comes first, the peptide text is derived from it. Bridges are numbered along the chain shown (N, C = ends). [ ]: non-standard residue; d: D form. The star is where a group is joined. ξ: configuration not given here. Phe(4-COOH) = N[C@@H](Cc1ccc(C(=O)O)cc1)C(=O)O; Bip = N[C@@H](Cc1ccc(-c2ccccc2)cc1)C(=O)O; Phe(3-Me) = Cc1cccc(C[C@H](N)C(=O)O)c1; Phe(4-F) = N[C@@H](Cc1ccc(F)cc1)C(=O)O; 4Pal = N[C@@H](Cc1ccncc1)C(=O)O; Cha = N[C@@H](CC1CCCCC1)C(=O)O; Ile(3ξ) = CCC(C)[C@H](N)C(=O)O; Thr(3ξ) = CC(O)[C@H](N)C(=O)O; Carboxymethyl = O=C(O)C*; NMeA = CN[C@@H](C)C(=O)O; Orn = NCCC[C@H](N)C(=O)O; Aun = NCCCCCCCCCCC(=O)O; Dab = NCC[C@H](N)C(=O)O; AEEA = NCCOCCOCC(=O)O; Sar = CNCC(=O)O

Molecular target: T1, PD-1/PD-L1 interaction (PE-labeled human PD-L1-Ig binding to Jurkat cell line over-expressing human PD-1) (Homo sapiens, UniProt Q15116)
T1 construct: expressed in transfected cells; host or cells: Jurkat
Experiment: Jurkat-PD-1 Cell Binding High-Content Screening Assay (CBA)
In short: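 Jurkat-hPD-1 cells (8×10^3/well) in DMEM with 10% fetal calf serum were preincubated with compound for 2 h at 37 °C. PE-labeled PD-L1-Ig was then added at 20 nM final for 1 h. Cells were fixed in paraformaldehyde with Hoechst 33342, washed and imaged by high-content imaging.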

[1] = Jurkat-hPD-1 cells, PE-labeled PD-L1-Ig 20 nM final; read-out: Jurkat HPD1 PDL1 IC50

T1 sequence (Q15116 25-288): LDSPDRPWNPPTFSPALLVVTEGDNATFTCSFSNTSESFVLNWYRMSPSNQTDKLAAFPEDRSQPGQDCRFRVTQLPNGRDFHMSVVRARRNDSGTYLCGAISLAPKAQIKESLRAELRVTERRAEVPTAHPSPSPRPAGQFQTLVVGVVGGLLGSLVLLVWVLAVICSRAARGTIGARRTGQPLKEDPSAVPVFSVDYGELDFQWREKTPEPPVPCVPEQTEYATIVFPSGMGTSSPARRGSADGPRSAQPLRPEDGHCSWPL

| IC50 [1] [nM] | IC50 (PE-labeled PD-L1-Ig 20 nM final, Jurkat-hPD-1 cells; read-out: Jurkat HPD1 PDL1 IC50) [nM] | Compound |
| --- | --- | --- |
| 17.7 | – | CCC(C)[C@@H]1NC(=O)[C@H](Cc2ccc(-c3ccccc3)cc2)NC(=O)[C@H](C(C)C)NC(=O)[C@H](Cc2c[nH]c3ccccc23)NC(=O)[C@H](CC(=O)O)NC(=O)[C@H](Cc2ccc(C(=O)O)cc2)NC(=O)[C@H](Cc2ccc(OCC(=O)O)cc2)NC(=O)CSC[C@@H](C(=O)N[C@@H](CCCN)C(=O)NCCOCCOCC(=O)NCCCCCCCCCCC(=O)O)NC(=O)[C@H](C(C)O)NC(=O)[C@H](C(C)C)NC(=O)[C@H](CC2CCCCC2)NC(=O)[C@H](CCN)NC(=O)[C@@H](CC(C)C)NC(=O)[C@H](C)N(C)C1=O (stereo partly drawn) [Example 2149] ({CH2CO}-Y(Carboxymethyl)[Phe(4-COOH)]DWV[Bip][Ile(3ξ)][NMeA][dL][Dab][Cha]V[Thr(3ξ)]C[Orn][AEEA][Aun]-OH; thioether N-14) |
| – | 19.6 | Cc1cccc(C[C@@H]2NC(=O)[C@H](CC(=O)O)NC(=O)[C@H](Cc3ccc(C(=O)O)cc3)NC(=O)[C@H](Cc3ccc(F)cc3)NC(=O)CSC[C@@H](C(=O)N[C@@H](CCN)C(=O)NCCOCCOCC(=O)NCCCCCCCCCCC(=O)O)NC(=O)[C@H](CCC(=O)O)NC(=O)[C@H](C(C)C)NC(=O)[C@H](CC3CCCCC3)NC(=O)[C@H](CCN)NC(=O)[C@@H](CC(C)C)NC(=O)[C@H](C)N(C)C(=O)[C@H](Cc3ccc(C(=O)O)cc3)NC(=O)[C@H](Cc3ccc(-c4ccccc4)cc3)NC(=O)[C@H](Cc3ccc(C(=O)O)cc3)NC2=O)c1 [Example 2548] ({CH2CO}-[Phe(4-F)][Phe(4-COOH)]D[Phe(3-Me)][Phe(4-COOH)][Bip][Phe(4-COOH)][NMeA][dL][Dab][Cha]VEC[Dab][AEEA][Aun]-OH; thioether N-14) |

The next lines start with the molecule.

| Compound | IC50 [1] [nM] | IC50 (PE-labeled PD-L1-Ig 20 nM final, Jurkat-hPD-1 cells; read-out: Jurkat HPD1 PDL1 IC50) [nM] |
| --- | --- | --- |
| CC(C)C[C@H]1NC(=O)[C@H](C)N(C)C(=O)[C@H](Cc2ccc(O)cc2)NC(=O)[C@H](Cc2ccc(-c3ccccc3)cc2)NC(=O)[C@H](C(C)C)NC(=O)[C@H](Cc2c[nH]c3ccccc23)NC(=O)[C@H](CC(=O)O)NC(=O)[C@H](Cc2ccc(OCC(=O)O)cc2)NC(=O)[C@H](C(C)O)NC(=O)CSC[C@@H](C(=O)N[C@H](CC(N)=O)C(=O)NCCCCCCCCCCC(=O)O)NC(=O)[C@H](CCCN)NC(=O)[C@H](C(C)C)NC(=O)[C@H](CC2CCCCC2)NC(=O)[C@H](CCN)NC1=O (stereo partly drawn) [Example 2242] ({CH2CO}-[Thr(3ξ)]Y(Carboxymethyl)DWV[Bip]Y[NMeA][dL][Dab][Cha]V[Orn]C[dN][Aun]-OH; thioether N-14) | 114 | – |
| CC(=O)NCCCC[C@@H]1NC(=O)[C@H](C(C)C)NC(=O)[C@H](CC2CCCCC2)NC(=O)[C@H](CCN)NC(=O)[C@@H](CC(C)C)NC(=O)[C@H](C)N(C)C(=O)[C@H](Cc2ccc(O)cc2)NC(=O)[C@H](Cc2ccc(-c3ccccc3)cc2)NC(=O)[C@H](C(C)C)NC(=O)[C@H](Cc2cccc(C)c2)NC(=O)[C@H](CC(=O)O)NC(=O)[C@H](Cc2ccc(OCC(=O)O)cc2)NC(=O)[C@H](Cc2ccncc2)NC(=O)CSC[C@@H](C(=O)N(C)CC(=O)NCCCCCCCCCCC(=O)O)NC1=O [Example 2276] ({CH2CO}-[4Pal]Y(Carboxymethyl)D[Phe(3-Me)]V[Bip]Y[NMeA][dL][Dab][Cha]VK(Ac)C[Sar][Aun]-OH; thioether N-14) | 174 | – |
| CC(C)C[C@H]1NC(=O)[C@H](C)N(C)C(=O)[C@H](C(C)C)NC(=O)[C@H](Cc2ccc(-c3ccccc3)cc2)NC(=O)[C@H](C(C)C)NC(=O)[C@H](Cc2c[nH]c3ccccc23)NC(=O)[C@H](CC(=O)O)NC(=O)[C@H](Cc2ccc(C(=O)O)cc2)NC(=O)[C@H](Cc2ccc(OCC(=O)O)cc2)NC(=O)CSC[C@@H](C(=O)N[C@@H](CCCCN)C(=O)NCCOCCOCC(=O)NCCCCCCCCCCC(=O)O)NC(=O)[C@H](C(C)O)NC(=O)[C@H](C(C)C)NC(=O)[C@H](CC2CCCCC2)NC(=O)[C@H](CCN)NC1=O (stereo partly drawn) [Example 2109] ({CH2CO}-Y(Carboxymethyl)[Phe(4-COOH)]DWV[Bip]V[NMeA][dL][Dab][Cha]V[Thr(3ξ)]CK[AEEA][Aun]-OH; thioether N-14) | 10.8 | – |
